This is an account of results in patent US12612627B2, “Compositions and methods for increasing sodium current in cardiac cells” (REGENTS OF THE UNIVERSITY OF MINNESOTA, priority 2020, dated 2026).

The structures appear in SMILES notation.

The test system of assay [1] is miR-448. Briefly: miR-448 level by qPCR in RL14 human cardiomyocytes. It is filed as cell-based. The note with it: for increase of miR-448 by deferoxamine: then deferoxamine six hours; for miR-448 expression: RL14 cells stimulated with hypoxia-mimetic chemical for 24 hours, normalized with RNU6. As for the experimental part:
Human fetal cardiomyocyte cell line RL14 (ATCC RL-14, ATCC, Manassas, VA) cells were grown in DMEM/F-12 nutrient mixture (GE Healthcare Life Sciences, Logan, UT) supplemented with 12.5% (v/v) fetal bovine serum (Gibco, Grand Island, NY) and penicillin-streptomycin (10,000 U/mL; Gibco, Grand Island, NY). HEK293T cells were maintained in DMEM high glucose supplemented with 10% fetal bovine serum and penicillin-streptomycin. hiPSC-cardiomyocytes (iCELL Cardiomyocytes) were obtained from Cellular Dynamics International (Madison, WI). iCELL cardiomyocytes were seeded and maintained using iCELL Cardiomyocyte Plating Medium and Maintenance Medium (FUJIFILM Cellular Dynamics, Inc., Madison, WI). For hypoxic conditions, the cells were cultured in an hypoxic incubator chamber (STEMCELL Technologies, Vancouver, BC) using pre-incubated culture media or were treated with hypoxic-mimetic chemicals, deferoxamine (DFX) and cobalt chloride (CoCl2) (Sigma-Aldrich, St. Louis, MO) as previously described (Chachami et al., 2004, Am J Respir Cell Mol Biol 31:544-551; Woo et al, 2006, Biochem Biophys Res Commun 343:8-14).
Syn-hsa-miR-448 miScript miRNA mimic, anti-hsa-miR-448 miScript miRNA inhibitor, and its negative controls were purchased from Qiagen (Valencia, CA). REST siRNA and its negative control were obtained from Integrated DNA Technologies (Coralville, IA). The cells were transfected using HiPerFect Transfection Reagent (Qiagen, Valencia, CA) following the recommendations of the manufacturer. Plasmid DNA was transfected into cultured cells using SuperFect transfection reagent (Qiagen, Valencia, CA) following the manufacturer's protocol.
Total RNA was prepared using RNeasy Plus Mini Kit or miRNeasy Mini Kit (Qiagen, Valencia, CA) according to the manufacturer's instructions. Reverse transcription was performed with a First Strand cDNA Synthesis kit (Promega, Madison, WI). cDNA for miRNA detection was generated by the miScript II RT Kit (Qiagen, Valencia, CA). A reverse transcription quantitative real-time PCR was performed with SYBR Green PCR Master Mix (Thermo Fisher Scientific, Waltham, MA) using the 7500Fast Real-Time PCR system (Thermo Fisher Scientific, Waltham, MA) and miScript SYBR Green PCR Kit with miScript primer assays to detect the expression of miRNA. The primer sequences were as follows:
Hs_miR-448_1 miScript Primer Assay (5′-[…]-3′; (SEQ ID NO:1; Qiagen, Valencia, CA) was used for detecting miR-448, and the Hs_RNU6-2_11 miScript Primer Assay (Qiagen, Valencia, CA) was used as an endogenous control. The relative fold change was calculated by the 2^−ΔΔCt method, and the measurements were normalized with respect to the endogenous control (RNU6, GAPDH).
Background: Quantitative PCR measures a nucleic acid by following its amplification.

Assay [2] has as its system Nav1.5. In words: Nav1.5 protein level by Western blotting in RL14 human cardiomyocytes. It counts as cell-based. The note with it: cardiomyocytes treated for 24 hours. As for the experimental part: Human fetal cardiomyocyte cell line RL14 (ATCC RL-14, ATCC, Manassas, VA) cells were grown in DMEM/F-12 nutrient mixture (GE Healthcare Life Sciences, Logan, UT) supplemented with 12.5% (v/v) fetal bovine serum (Gibco, Grand Island, NY) and penicillin-streptomycin (10,000 U/mL; Gibco, Grand Island, NY). HEK293T cells were maintained in DMEM high glucose supplemented with 10% fetal bovine serum and penicillin-streptomycin. hiPSC-cardiomyocytes (iCELL Cardiomyocytes) were obtained from Cellular Dynamics International (Madison, WI). iCELL cardiomyocytes were seeded and maintained using iCELL Cardiomyocyte Plating Medium and Maintenance Medium (FUJIFILM Cellular Dynamics, Inc., Madison, WI). […]
Cells were washed twice with ice-cold PBS and disrupted in Cell Lysis Buffer (Cell Signaling Technology, Danvers, MA) with Protease and Phosphatase Inhibitor Cocktail (Thermo Fisher Scientific, Waltham, MA) on ice for 30 minutes. […] The total protein concentration was quantified using the BCA Protein Assay Kit (Pierce, Thermo Fisher Scientific, Waltham, MA). […]
After TBST washing, the membrane was incubated with horseradish peroxidase (HRP)-conjugated secondary antibody (1:5000) for 90 min at room temperature. […] The images were analyzed using ImageJ software to measure band density. […]
(In general: In western blotting, separated proteins are transferred to a membrane and probed.)

As for `Cc1ccc(S(=O)(=O)/C=C/C#N)cc1` [Bay11-7028], the “increase of miR-448 by deferoxamine” value in assay [1] (0.5 μM or 2 μM for 30 minutes) is given as “inhibited”.

As to `O=S(=O)(NCCSSCCNS(=O)(=O)c1cc(Cl)ccc1Cl)c1cc(Cl)ccc1Cl` [KC7F2], in assay [1] (5 μM or 20 μM for 30 minutes), the “increase of miR-448 by deferoxamine” value is on record as “inhibited”. For the compound `C=CCONC(=O)c1ccc2nc(-c3ccccc3O)[nH]c2c1` [X5050], the Nav1.5 protein level entry in assay [2] was “decreased”.

For the compound `[Cl][Co][Cl]` [cobalt chloride], the miR-448 expression entry in assay [1] was “increased”. As for `COC(=O)CNC(=O)C(=O)OC` [dimethyloxallyl glycine], in assay [1], the miR-448 expression result is given as “increased”.
